Data from patent publication US20110098296A1, “Thiazole And Oxazole Kinase Inhibitors” (priority 2007, published 2011).
pIC50: −log10 of the molar value. Structures can show the parent of a compound that is named as a salt.

How the values were obtained:
EGFR = target: T1, EGFR (Homo sapiens, UniProt P00533); test: EGFR substrate phosphorylation assay (HTRF); format: biochemical; settings: Method (A): Enzyme Mix incubated with compound at 20° C. for 1 hr, reaction started by adding Substrate Mix
T1 construct: made in house; host or cells: baculovirus expression system
Procedure, shortened: (§1)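 Baculovirus-expressed kinase (0.8 nM EGFR or 10 nM ErbB2 in enzyme mix) with Peptide C 0.8 μM and ATP 20 μM (substrate-mix levels), MOPS pH 7.5, MnCl2; 90 min, 20 °C, HTRF anti-phosphotyrosine. Method A adds 1 h enzyme–compound preincubation; B none. pIC50, final compound 0.00027–47.6 μM.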

ErbB2 = target: T2, ErbB2 (Homo sapiens, UniProt P04626); test: ErbB-2 substrate phosphorylation assay (HTRF); format: biochemical; settings: Method (A): Enzyme Mix incubated with compound at 20° C. for 1 hr, reaction started by adding Substrate Mix
T2 construct: made in house; host or cells: baculovirus expression system
Procedure, shortened: as §1

HN5 tumor cells = test: Method B: CellTiter-Glo Growth Inhibition Assay, HN5; format: cell-based; settings: Homo sapiens, 72 h, 3 days
Description: (§2) Human breast tumor cells (BT474) were cultured in RPMI, (Invitrogen, 22400) containing 10% fetal bovine serum (FBS). Human head and neck tumor cells (HN5) were cultured in low glucose DMEM (Invitrogen, 12320) containing 10% FBS. Human colon tumor cells (Colo205) were cultured in DMEM (Invitrogen, 10564) containing 10% FBS. Human melanoma cancer cells (SK-MEL-28) were incubated in DMEM (Invitrogen). All cell lines were maintained at 37° C. in a humidified 5% CO2, 95% air incubator. Cells were harvested using trypsin/EDTA, counted using a haemocytometer, and plated in 30 μL of the appropriate media described above, at the following densities, in a half-area, black-walled, 96-well tissue culture plate (Corning 3882): BT474 3,000 cells/well, HN5 500 cells/well, Colo205 3,000 cells/well, and SK-MEL-28 500 cells/well). The next day, compounds were diluted in DMEM containing […] gentamicin, from 10 mM stock solutions in DMSO. 30 μL/well of these dilutions were added to the 30 μL/well of media currently on the cell plates. Medium containing 0.6% DMSO was added to control wells. The final concentration of DMSO in all wells was 0.3%. Cells were incubated at 37° C., 5% CO2 for 3 days. Cell biomass was estimated using CellTiter-Glo® reagent (Promega G7571). Briefly, plates were removed from the incubator and allowed to equilibrate to rt for 30 minutes. 25-60 μL of CellTiter-Glo® reagent were added to each well of the treated cells and plates were shaken on an orbital plate shaker for 2 mins. Plates were incubated without shaking for 30 more mins and read in a luminometer with an integration time of 0.5 seconds per well. Percent inhibition of cell growth was calculated relative to vehicle-treated control wells. Concentration of compound that inhibits 50% of vehicle control cell growth (IC50) was interpolated using nonlinear regression (Levenberg-Marquardt) and the equation, y=V max*(1−(x/(K+x)))+Y2, where “K” was equal to the IC50.

BT474 tumor cells = test: Method B: CellTiter-Glo Growth Inhibition Assay, BT474; format: cell-based; settings: Homo sapiens, BT-474, 72 h, 3 days
Description: as §2

Colo205 tumor cells = test: Method B: CellTiter-Glo Growth Inhibition Assay, Colo205; format: cell-based; settings: Homo sapiens, COLO 205, 72 h, 3 days
Description: as §2

T2 sequence (P04626 23-1255): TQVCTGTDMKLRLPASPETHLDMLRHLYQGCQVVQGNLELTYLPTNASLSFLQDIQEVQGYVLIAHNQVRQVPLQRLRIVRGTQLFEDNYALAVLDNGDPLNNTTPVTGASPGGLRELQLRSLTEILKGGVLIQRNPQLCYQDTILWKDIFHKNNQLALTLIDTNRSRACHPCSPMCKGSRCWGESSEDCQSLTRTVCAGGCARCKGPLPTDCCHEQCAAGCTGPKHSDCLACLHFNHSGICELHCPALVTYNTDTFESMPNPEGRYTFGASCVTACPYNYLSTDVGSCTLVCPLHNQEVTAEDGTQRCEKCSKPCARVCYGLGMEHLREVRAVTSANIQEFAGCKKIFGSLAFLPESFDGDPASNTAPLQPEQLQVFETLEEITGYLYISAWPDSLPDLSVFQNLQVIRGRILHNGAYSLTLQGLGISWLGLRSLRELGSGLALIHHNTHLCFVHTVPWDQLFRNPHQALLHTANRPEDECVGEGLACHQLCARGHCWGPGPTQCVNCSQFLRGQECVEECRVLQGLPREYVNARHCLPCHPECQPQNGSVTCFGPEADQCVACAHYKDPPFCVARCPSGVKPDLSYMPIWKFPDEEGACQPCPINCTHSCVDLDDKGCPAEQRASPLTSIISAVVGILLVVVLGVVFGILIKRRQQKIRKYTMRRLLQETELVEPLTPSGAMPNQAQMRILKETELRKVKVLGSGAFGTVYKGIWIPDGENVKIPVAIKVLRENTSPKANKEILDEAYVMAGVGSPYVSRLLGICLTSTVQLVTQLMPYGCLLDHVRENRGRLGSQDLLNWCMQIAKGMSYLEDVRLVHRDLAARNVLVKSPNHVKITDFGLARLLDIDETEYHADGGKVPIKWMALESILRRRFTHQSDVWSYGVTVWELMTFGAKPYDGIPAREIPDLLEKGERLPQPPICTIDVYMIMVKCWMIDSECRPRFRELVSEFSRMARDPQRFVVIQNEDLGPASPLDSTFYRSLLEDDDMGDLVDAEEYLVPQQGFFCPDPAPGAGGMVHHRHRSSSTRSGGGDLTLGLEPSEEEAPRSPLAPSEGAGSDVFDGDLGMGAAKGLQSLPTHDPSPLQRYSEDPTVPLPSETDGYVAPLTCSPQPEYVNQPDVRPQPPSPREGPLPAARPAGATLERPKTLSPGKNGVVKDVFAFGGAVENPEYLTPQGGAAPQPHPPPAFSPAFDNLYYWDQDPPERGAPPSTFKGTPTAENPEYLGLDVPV
T1 sequence (P00533 25-1210): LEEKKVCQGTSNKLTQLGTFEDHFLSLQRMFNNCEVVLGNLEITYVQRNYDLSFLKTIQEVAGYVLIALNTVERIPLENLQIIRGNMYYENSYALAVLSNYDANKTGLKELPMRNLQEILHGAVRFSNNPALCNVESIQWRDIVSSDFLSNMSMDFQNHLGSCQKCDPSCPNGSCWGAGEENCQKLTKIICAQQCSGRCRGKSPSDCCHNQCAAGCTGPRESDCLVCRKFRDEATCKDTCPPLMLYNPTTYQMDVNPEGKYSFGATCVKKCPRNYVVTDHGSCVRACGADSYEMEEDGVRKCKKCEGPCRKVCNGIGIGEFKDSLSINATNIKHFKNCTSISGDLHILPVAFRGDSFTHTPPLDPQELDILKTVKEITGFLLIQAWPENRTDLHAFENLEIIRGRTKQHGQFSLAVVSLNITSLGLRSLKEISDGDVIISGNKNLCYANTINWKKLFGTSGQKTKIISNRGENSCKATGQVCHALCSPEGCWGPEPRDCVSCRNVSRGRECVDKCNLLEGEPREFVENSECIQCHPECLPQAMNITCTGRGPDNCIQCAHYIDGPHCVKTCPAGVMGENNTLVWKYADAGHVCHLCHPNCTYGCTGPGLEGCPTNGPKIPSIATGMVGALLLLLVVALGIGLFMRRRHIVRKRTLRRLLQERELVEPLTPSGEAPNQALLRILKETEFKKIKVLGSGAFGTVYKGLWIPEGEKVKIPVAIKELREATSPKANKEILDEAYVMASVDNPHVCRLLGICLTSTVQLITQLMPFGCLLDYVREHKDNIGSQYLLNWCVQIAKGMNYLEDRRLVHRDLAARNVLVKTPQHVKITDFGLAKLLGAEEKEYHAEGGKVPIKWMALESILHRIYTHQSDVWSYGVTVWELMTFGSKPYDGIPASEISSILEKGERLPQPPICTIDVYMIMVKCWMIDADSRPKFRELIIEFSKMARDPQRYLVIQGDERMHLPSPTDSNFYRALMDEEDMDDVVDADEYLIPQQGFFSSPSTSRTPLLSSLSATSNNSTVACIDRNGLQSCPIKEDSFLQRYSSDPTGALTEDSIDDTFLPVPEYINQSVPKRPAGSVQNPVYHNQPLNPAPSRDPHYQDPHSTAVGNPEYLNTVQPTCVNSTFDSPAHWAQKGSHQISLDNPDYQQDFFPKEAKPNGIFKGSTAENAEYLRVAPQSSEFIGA

SMILES	pIC50 (EGFR)	pIC50 (ErbB2)	pIC50 (HN5 tumor cells)	pIC50 (BT474 tumor cells)	pIC50 (Colo205 tumor cells)
CN(C)CCOc1ccc(Nc2nccc(-c3scnc3-c3cccc(NC(=O)c4c(F)cccc4F)c3)n2)cc1Cl [Example 89]	> 7.00	> 7.00	> 7.00	> 7.00	6.00 to 7.00
CCN(CC)CCOc1cccc(Nc2nccc(-c3scnc3-c3cccc(NC(=O)c4c(F)cccc4F)c3)n2)c1 [Example 92, N-[3-(5-{2-[(3-{[2-(Diethylamino)ethyl]oxy}phenyl)amino]-4-pyrimidinyl}-1,3-thiazol-4-yl)phenyl]-2,6-difluorobenzamide-formic acid]	> 7.00	> 7.00	> 7.00	> 7.00	6.00 to 7.00
Cc1nc(-c2cccc(NC(=O)c3c(F)cccc3F)c2)c(-c2ccnc(Nc3cccc(F)c3)n2)s1 [Example 101, 2,6-Difluoro-N-[3-(5-{2-[(3-fluorophenyl)amino]-4-pyrimidinyl}-2-methyl-1,3-thiazol-4-yl)phenyl]benzamide]	> 7.00	> 7.00	> 7.00	> 7.00	< 6.00
Cc1nc(-c2cccc(NC(=O)Cc3cccs3)c2)c(-c2ccnc(Nc3cccc(F)c3)n2)s1 [Example 138, N-[3-(5-{2-[(3-Fluorophenyl)amino]-4-pyrimidinyl}-2-methyl-1,3-thiazol-4-yl)phenyl]-2-(2-thienyl)acetamide]	6.00 to 7.00	< 6.00	< 6.00	< 6.00	< 6.00

Continued, values first:

pIC50 (EGFR)	pIC50 (ErbB2)	pIC50 (HN5 tumor cells)	pIC50 (BT474 tumor cells)	pIC50 (Colo205 tumor cells)	SMILES
> 7.00	> 7.00	> 7.00	> 7.00	6.00 to 7.00	O=C(Nc1cccc(-c2ncsc2-c2ccnc(Nc3ccc4c(c3)CNCC4)n2)c1)c1c(F)cccc1F [Example 91, 2,6-Difluoro-N-(3-{5-[2-(1,2,3,4-tetrahydro-7-isoquinolinylamino)-4-pyrimidinyl]-1,3-thiazol-4-yl}phenyl)benzamide]
> 7.00	> 7.00	> 7.00	> 7.00	< 6.00	O=C1COc2cc(Nc3nccc(-c4scnc4-c4cccc(NC(=O)c5cc(F)ccc5F)c4)n3)ccc2N1 [Example 98, 2,5-Difluoro-N-[3-(5-{2-[(3-oxo-3,4-dihydro-2H-1,4-benzoxaziN-7-yl)amino]-4-pyrimidinyl}-1,3-thiazol-4-yl)phenyl]benzamide hydrochloride]
> 7.00	> 7.00	6.00 to 7.00	6.00 to 7.00	< 6.00	O=C1COc2ccc(Nc3nccc(-c4scnc4-c4cccc(NC(=O)c5cc(F)ccc5F)c4)n3)cc2N1 [Example 99, 2,5-Difluoro-N-[3-(5-{2-[(3-oxo-3,4-dihydro-2H-1,4-benzoxaziN-6-yl)amino]-4-pyrimidinyl}-1,3-thiazol-4-yl)phenyl]benzamide hydrochloride]
